What all share (type): biochemical
One test addresses T1, SET7/9 (Homo sapiens, UniProt Q8WTS6).
T1 construct: purchased Reaction Biology
T1 sequence (Q8WTS6 1-366): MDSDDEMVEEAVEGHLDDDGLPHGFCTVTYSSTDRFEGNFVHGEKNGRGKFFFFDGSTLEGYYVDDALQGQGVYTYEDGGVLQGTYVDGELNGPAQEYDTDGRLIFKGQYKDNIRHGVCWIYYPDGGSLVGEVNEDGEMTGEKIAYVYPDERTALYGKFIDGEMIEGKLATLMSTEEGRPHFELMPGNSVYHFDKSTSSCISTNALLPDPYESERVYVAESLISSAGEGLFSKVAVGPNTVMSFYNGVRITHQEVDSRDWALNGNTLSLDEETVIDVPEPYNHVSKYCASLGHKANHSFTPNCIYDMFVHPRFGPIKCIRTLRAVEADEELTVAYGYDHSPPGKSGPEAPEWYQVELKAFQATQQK
The test is described as follows: Radioisotope-based methyltransferase assay (selectivity).

The target of the next test is T2, DNMT3b/3L (Homo sapiens, UniProt Q9UBC3).
T2 construct: purchased Reaction Biology
Described as above.

The target of another test is T3, DNMT3a (Homo sapiens, UniProt Q9Y6K1).
T3 construct: purchased Reaction Biology
T3 sequence (Q9Y6K1 whole entry, looked up): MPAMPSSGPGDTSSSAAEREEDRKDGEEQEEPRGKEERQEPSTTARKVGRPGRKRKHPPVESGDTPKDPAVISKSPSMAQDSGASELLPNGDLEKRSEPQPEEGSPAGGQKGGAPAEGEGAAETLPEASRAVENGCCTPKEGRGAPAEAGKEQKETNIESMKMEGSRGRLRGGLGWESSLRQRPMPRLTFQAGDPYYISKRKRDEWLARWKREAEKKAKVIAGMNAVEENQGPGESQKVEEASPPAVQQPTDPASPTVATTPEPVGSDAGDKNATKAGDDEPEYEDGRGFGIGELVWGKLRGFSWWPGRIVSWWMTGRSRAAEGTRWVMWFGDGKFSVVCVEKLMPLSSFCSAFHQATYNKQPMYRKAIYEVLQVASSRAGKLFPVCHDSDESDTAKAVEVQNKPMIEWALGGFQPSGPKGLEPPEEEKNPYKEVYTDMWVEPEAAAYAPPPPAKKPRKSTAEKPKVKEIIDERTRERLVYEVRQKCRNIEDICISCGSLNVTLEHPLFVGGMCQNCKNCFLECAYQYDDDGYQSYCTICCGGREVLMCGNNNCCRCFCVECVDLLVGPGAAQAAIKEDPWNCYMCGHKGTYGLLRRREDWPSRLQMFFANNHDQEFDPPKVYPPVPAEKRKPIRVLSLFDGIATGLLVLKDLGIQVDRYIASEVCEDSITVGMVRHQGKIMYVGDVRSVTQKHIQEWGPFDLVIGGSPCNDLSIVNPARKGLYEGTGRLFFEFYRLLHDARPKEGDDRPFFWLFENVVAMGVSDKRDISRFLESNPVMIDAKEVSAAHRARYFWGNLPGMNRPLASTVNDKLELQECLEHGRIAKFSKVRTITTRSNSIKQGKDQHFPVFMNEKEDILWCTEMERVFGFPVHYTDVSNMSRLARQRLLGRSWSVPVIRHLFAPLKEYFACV
The test is described as above.

The next test has as its target T4, G9a (Homo sapiens, UniProt Q96KQ7).
T4 sequence (Q96KQ7 1-1210): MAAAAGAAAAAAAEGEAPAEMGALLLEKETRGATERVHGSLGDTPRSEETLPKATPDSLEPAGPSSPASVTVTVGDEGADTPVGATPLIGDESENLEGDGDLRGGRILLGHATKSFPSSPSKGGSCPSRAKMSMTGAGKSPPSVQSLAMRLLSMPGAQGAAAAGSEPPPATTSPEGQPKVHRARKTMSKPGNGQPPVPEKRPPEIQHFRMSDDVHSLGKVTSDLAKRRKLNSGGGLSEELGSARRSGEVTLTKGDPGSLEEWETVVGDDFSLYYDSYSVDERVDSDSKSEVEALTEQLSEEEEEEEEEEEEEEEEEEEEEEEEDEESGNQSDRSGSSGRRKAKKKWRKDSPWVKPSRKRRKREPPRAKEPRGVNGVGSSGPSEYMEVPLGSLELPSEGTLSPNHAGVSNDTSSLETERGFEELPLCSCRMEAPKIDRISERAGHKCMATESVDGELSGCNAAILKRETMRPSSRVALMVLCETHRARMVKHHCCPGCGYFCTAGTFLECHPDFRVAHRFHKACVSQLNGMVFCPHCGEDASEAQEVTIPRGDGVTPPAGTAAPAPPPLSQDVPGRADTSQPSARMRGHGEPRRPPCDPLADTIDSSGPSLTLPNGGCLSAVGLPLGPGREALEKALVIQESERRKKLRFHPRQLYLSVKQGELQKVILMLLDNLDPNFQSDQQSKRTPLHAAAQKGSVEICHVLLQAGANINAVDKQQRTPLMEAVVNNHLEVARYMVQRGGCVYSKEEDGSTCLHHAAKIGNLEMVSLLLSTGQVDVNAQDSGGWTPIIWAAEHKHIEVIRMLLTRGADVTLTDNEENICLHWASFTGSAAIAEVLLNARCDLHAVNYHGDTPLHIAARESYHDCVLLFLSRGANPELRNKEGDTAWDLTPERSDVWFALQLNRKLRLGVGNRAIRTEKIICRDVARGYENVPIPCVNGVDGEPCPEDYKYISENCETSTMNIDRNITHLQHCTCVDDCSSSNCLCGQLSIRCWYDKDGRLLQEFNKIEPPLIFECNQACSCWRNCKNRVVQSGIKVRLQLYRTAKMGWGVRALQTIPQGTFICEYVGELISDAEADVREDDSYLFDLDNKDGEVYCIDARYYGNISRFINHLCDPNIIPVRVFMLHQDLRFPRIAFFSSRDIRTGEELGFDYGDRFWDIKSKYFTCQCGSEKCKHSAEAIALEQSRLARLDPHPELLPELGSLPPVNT
The test is described as follows: In vitro G9a methyltransferase assay (AlphaLISA-based). Details: purchased BPS Bioscience. The procedure: An amplified luminescence proximity homogeneous assay (ALPHA) was performed with a modified version of a previously described method. Recombinant G9a proteins (BPS Bioscience) were incubated with 15 μM S-adenosyl-methionine (Sigma) and 50 nM biotinylated histone H3 (1-21; AnaSpec) in the assay buffer (50 mM Tris-HCl (pH 9.0), 50 mM NaCl, 0.01% Tween-20, and 1 mM DTT). After incubation at room temperature for 1 h, AlphaLISA anti-H3K9me2 acceptor beads (final concentration 10 μg/mL, PerkinElmer, AL117C) and AlphaScreen streptavidin donor beads (final concentration 10 μg/mL, PerkinElmer, 6760002B) were added and incubated for an additional 1 h prior to detection of the alpha signal with an EnSpire Alpha plate reader (PerkinElmer). ALPHA profile was analyzed using Origin (OriginLab).
(In Alpha technology, singlet oxygen from a donor bead excites a nearby acceptor bead.)

The next test deals with T5, SMYD2 (Homo sapiens, UniProt Q9NRG4).
T5 construct: purchased Reaction Biology
T5 sequence (Q9NRG4 whole entry): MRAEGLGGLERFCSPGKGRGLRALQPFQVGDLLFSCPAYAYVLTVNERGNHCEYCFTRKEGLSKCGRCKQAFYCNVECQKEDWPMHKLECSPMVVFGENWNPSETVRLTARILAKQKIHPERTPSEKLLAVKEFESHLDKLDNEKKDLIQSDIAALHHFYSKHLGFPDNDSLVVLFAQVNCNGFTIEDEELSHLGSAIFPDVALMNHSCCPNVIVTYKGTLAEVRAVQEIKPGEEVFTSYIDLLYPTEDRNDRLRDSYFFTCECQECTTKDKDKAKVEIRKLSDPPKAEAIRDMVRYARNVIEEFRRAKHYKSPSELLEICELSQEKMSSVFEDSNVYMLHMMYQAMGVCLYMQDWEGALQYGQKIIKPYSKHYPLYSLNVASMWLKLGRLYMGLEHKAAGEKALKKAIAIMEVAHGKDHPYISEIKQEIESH
The test is described as follows: Radioisotope-based methyltransferase assay (selectivity).

Setting [1] is: G9a activity, 0.016 μM, single experiment.
The mark [2] stands for this setting: G9a activity, 0.08 μM, single experiment.
[3] abbreviates: G9a activity, 0.4 μM, single experiment.
The mark [4] stands for this setting: G9a activity, 2 μM, single experiment.
Setting [5] is: G9a activity, single experiment.
Setting [6] is: G9a activity, 10 μM, single experiment.
Setting [7] is: G9a activity, 50 μM, single experiment.

SMILES strings stand for the structures. Values joined by “and” are separate entries in the source; they are usually repeats but may differ in a detail not shown here. Equal values may be shown once. Read-outs that look alike come from different tables or passages of the source.

For `Cc1c(C(=O)NC(CCC2CC2)C(=O)Nc2ccc(C#N)cc2)[nH]c2c1C(=O)CC(C)(C)C2` (centres unmarked) [RK-701], the IC50 – broadly, the concentration that gives 50% inhibition – was greater than 100000 nM at SET7/9 (SET7/9, 1 μM SAM); greater than 100000 nM on SET7/9 (SET7/9, RK-701 in duplicate); greater than 100000 nM against DNMT3b/3L (1 μM SAM); greater than 100000 nM on DNMT3b/3L (RK-701 in duplicate); greater than 100000 nM at DNMT3a (DNMT3a, 1 μM SAM, read-out: IC50); greater than 100000 nM at DNMT3a (DNMT3a, RK-701 in duplicate, read-out: IC50). Moreover, the IC50 at G9a (G9a) is 23 to 27 nM and 27 nM; on G9a (setting [5]) it was 24.8 nM and 29 nM and 28.5 nM; at SMYD2 (SMYD2, 1 μM SAM), greater than 100000 nM; against SMYD2 (SMYD2, RK-701 in duplicate), greater than 100000 nM. The Inhibition % was 6.475% and 0% at G9a (G9a activity, 0.00064 μM, single experiment); 30.3347% and 30.0776% on G9a (setting [1]); 81.1273% and 81.8822% at G9a (setting [2]); 98.9416% and 99.213% on G9a (setting [3]); 99.979% and 99.9697% on G9a (setting [4]). Besides, testing at 0.016 µM against G9a (setting [1]) gave an inhibition of 35.6%. Moreover, the inhibition (in general, the percentage by which the read-out fell short of the control) at 0.08 µM on G9a (setting [2]) worked out at 82.3%. The inhibition at 0.4 µM against G9a (setting [3]) worked out at 99.3%. For the same compound, the inhibition at 2 µM against G9a (setting [4]) was 100%.
As for `Cc1c(C(=O)N[C@H](CCC2CC2)C(=O)Nc2ccc(C#N)cc2)[nH]c2c1C(=O)CC(C)(C)C2` [RK-0133114], the half-maximal inhibitory concentration (IC50) on G9a (G9a) is 3700 nM; on G9a (setting [5]), 3010 nM and 3620 nM and 4440 nM. Also, the Inhibition % on G9a (G9a activity, 0.0032 μM, single experiment) is 9.4545% and 6.383% and 0%; on G9a (setting [1]), 4.31% and 2.981% and 0%; at G9a (setting [2]) it was 0% and 8.43%; on G9a (setting [4]) it was 32.9012% and 25.4405%; at G9a (setting [6]) it was 77.5611% and 74.8715%; on G9a (setting [7]) it was 96.0953% and 94.6907%. Further, the inhibition at 2 µM at G9a (setting [4]) is 42.7%. The compound further yielded an inhibition at 10 µM against G9a (setting [6]) of 74.3%. Moreover, the inhibition at 50 µM against G9a (setting [7]) stood at 97.9%.
Take `Nc1ncnc2c1ncn2[C@@H]1O[C@H](CSCC[C@H](N)C(=O)O)[C@@H](O)[C@H]1O` [SAH, S-(5'-Adenosyl)-L-homocysteine, reference compound]: the IC50 stood at 81800 nM against SET7/9 (SET7/9, 1 μM SAM); 81800 nM against SET7/9 (SET7/9, RK-701 in duplicate); 50 nM at DNMT3b/3L (1 μM SAM); 54.2 nM against DNMT3b/3L (RK-701 in duplicate); 300 nM at DNMT3a (IC50, DNMT3a, 1 μM SAM); 300 nM against DNMT3a (IC50, DNMT3a, RK-701 in duplicate). For the same compound, the IC50 was found to be 1900 nM against SMYD2 (SMYD2, 1 μM SAM) and 1910 nM at SMYD2 (SMYD2, RK-701 in duplicate).
